Data from ChEMBL document CHEMBL1149943, “2-aminoalchohol immunosuppressants: Structure-activity relationships” (Bioorg Med Chem Lett, 1996).

Species: Mus musculus
Experiment: Compound was tested for its effect on mouse allogenic mixed lymphocyte reaction(MLR).
Assay type: functional, organism-based

SMILES	IC50
CCCCCCCCc1ccc(CC[C@H](N)CO)cc1	427 nM
CCCCCCCCCCCCCCCCCC[C@H](N)CO	1390 nM
CCCCCCCCCCCCCCCCCC[C@@H](N)CO	533 nM
CCCCCCCCCCCCCCCCCCC(N)CO (racemic)	867 nM

The next compounds have a lower IC50 than those just listed; values first:

IC50	SMILES
108 nM	CCCCCCCCc1ccc(CC[C@@H](N)CO)cc1
137 nM	CCCCCCCCCCCCCC[C@H](N)CO
68.8 nM	CCCCCCCCCCCCCC[C@@H](N)CO
211 nM	CCCCCCCCc1ccc(CCC(N)CO)cc1 (stereo not given)
98.3 nM	CCCCCCCCCCCCCCC(N)CO (racemic)
67.4 nM	CCCCCCCCc1ccc(CCC(N)(CO)CO)cc1 [FINGOLIMOD]
